From publication doi:10.1101/2025.07.15.665002v1 (biorxiv, 2025)
Substitutions are numbered along the chain they refer to. Like-named read-outs stand apart in the source and are kept apart here.

Experiments:
hMDH2 [1] = molecular target: T1, hMDH2 (Homo sapiens, UniProt P40926); assay: NADH oxidation at […] nm; assay type: biochemical; details: read-out: % of control activity remaining at 10.0 mM
T1 sequence (P40926 25-338): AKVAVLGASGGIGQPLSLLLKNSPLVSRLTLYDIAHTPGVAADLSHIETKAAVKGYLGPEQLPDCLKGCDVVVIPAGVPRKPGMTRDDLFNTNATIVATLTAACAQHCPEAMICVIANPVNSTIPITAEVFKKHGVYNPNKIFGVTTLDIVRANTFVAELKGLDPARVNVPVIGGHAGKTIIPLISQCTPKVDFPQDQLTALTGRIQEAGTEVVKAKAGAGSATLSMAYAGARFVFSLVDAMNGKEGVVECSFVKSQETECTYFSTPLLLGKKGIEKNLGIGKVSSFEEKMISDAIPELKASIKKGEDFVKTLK

hMDH2 [2] = molecular target: T2, hMDH2 (Homo sapiens, UniProt P40926, H131W); assay type: binding
T2 sequence (P40926 25-338 H131W): T1 sequence (P40926 25-338) with H107W

hMDH2 [3] = molecular target: T2, hMDH2; assay type: binding; remark: listed apart in the source
hMDH2 [4] = molecular target: T1, hMDH2; assay: NADH oxidation at […] nm; assay type: biochemical; details: read-out: % inhibition at 10.0 mM

Compound | remaining activity at 10000 µM (hMDH2 [1]) [%] | Kd (hMDH2 [2]) [mM] | Kd (hMDH2 [3]) [mM] | inhibition at 10000 µM (hMDH2 [4]) [%]
NC(=O)c1ccc[n+]([C@@H]2O[C@H](COP(=O)(O)OP(=O)(O)OC[C@H]3O[C@@H](n4cnc5c(N)ncnc54)[C@H](O)[C@@H]3O)[C@@H](O)[C@H]2O)c1 [NAD^+] | 13.2 | 1.02 ± 0.039 | – | –
Nc1ncnc2c1ncn2[C@@H]1O[C@H](COP(=O)(O)OP(=O)(O)OP(=O)(O)O)[C@@H](O)[C@H]1O [ATP] | 29.1 | 9.63 ± 0.68 | – | –
O=C(O)CC(O)(CC(=O)O)C(=O)O [citrate] | 31 | – | – | –
Nc1ncnc2c1ncn2[C@@H]1O[C@H](COP(=O)(O)OP(=O)(O)O)[C@@H](O)[C@H]1O [ADP] | 18.7 | 3.77 ± 0.27 | – | –
O=C(O)CCC(=O)C(=O)O [α-ketoglutarate] | – | – | 10.4 ± 1.45 | 51.7
